Laboratory results from article PMC7402526, “An in vitro quantitative systems pharmacology approach for deconvolving mechanisms of drug-induced, multilineage cytopenias” (PLoS Computational Biology, 2020).

Assays:
B cells (B-lin) = experiment: MLTA, B-lin: concentration-response and QSP model fit; type: cell-based, human; conditions: Homo sapiens, B-cell, 144 h; for activity at 0.0002 µM: dose 0.2 nM; for activity at 0.0002 µM / activity at 0.001 µM / activity at 0.005 µM / activity at 0.025 µM / activity at 0.1 µM / activity at 0.5 µM / activity at 2.5 µM: 6 days, normalized to vehicle control, read-out: B-lin normalized cell count; for activity at 0.001 µM: dose 1 nM; for activity at 0.005 µM: dose 5 nM; for activity at 0.025 µM: dose 25 nM; for activity at 0.1 µM: dose 100 nM; for activity at 0.5 µM: dose 500 nM; for activity at 2.5 µM: dose 2500 nM; for Emax: parameter from QSP model fitting, read-out: Emax_drug_B
How it was run: (§1)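 Freeze-thawed primary human bone marrow CD34+ cells were grown in SFEM II with a multi-lineage cytokine cocktail, drug added day 0, six days at 37°C. Lineage counts came from 17-parameter flow with TruCount beads, vehicle-normalized per donor, then fitted by an Emax-based QSP model.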

[1] = tested on: total viable cells (totalViableCells); experiment: MLTA, total live cells concentration-response; type: cell-based; conditions: Homo sapiens, 144 h, 6 days, normalized to vehicle control, read-out: total_live normalized cell count; for viability at 0.0002 µM: dose 0.2 nM; for viability at 0.001 µM: dose 1 nM; for viability at 0.005 µM: dose 5 nM; for viability at 0.025 µM: dose 25 nM; for viability at 0.1 µM: dose 100 nM; for viability at 0.5 µM: dose 500 nM; for viability at 2.5 µM: dose 2500 nM
How it was run: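 Freeze-thawed primary human bone marrow CD34+ cells in SFEM II with cytokine cocktail, drug added day 0, 6 days at 37°C, 5% CO2. Live/dead counts by 17-parameter flow cytometry with DAPI exclusion, bead-normalized, volume-corrected to cells/mL. Normalized per donor to mean of six vehicle wells; 2–7 donors pooled.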

[2] = tested on: lymphocyte progenitors (LymP); experiment: MLTA, LymP: concentration-response and QSP model fit; type: cell-based, human; conditions: Homo sapiens, Lymphocyte, 144 h; for activity at 0.0002 µM: dose 0.2 nM; for activity at 0.0002 µM / activity at 0.001 µM / activity at 0.005 µM / activity at 0.025 µM / activity at 0.1 µM / activity at 0.5 µM / activity at 2.5 µM: 6 days, normalized to vehicle control, read-out: LymP normalized cell count; for activity at 0.001 µM: dose 1 nM; for activity at 0.005 µM: dose 5 nM; for activity at 0.025 µM: dose 25 nM; for activity at 0.1 µM: dose 100 nM; for activity at 0.5 µM: dose 500 nM; for activity at 2.5 µM: dose 2500 nM; for Emax: parameter from QSP model fitting, read-out: Emax_drug_LymP
How it was run: as §1

MK cells (MK-lin) = experiment: MLTA, MK: concentration-response and QSP model fit; type: cell-based, human; conditions: Homo sapiens, 144 h; for activity at 0.0002 µM: dose 0.2 nM; for activity at 0.0002 µM / activity at 0.001 µM / activity at 0.005 µM / activity at 0.025 µM / activity at 0.1 µM / activity at 0.5 µM / activity at 2.5 µM: 6 days, normalized to vehicle control, read-out: MK normalized cell count; for activity at 0.001 µM: dose 1 nM; for activity at 0.005 µM: dose 5 nM; for activity at 0.025 µM: dose 25 nM; for activity at 0.1 µM: dose 100 nM; for activity at 0.5 µM: dose 500 nM; for activity at 2.5 µM: dose 2500 nM; for Emax: parameter from QSP model fitting, read-out: Emax_drug_MK
How it was run: as §1

[3] = tested on: granulocyte-macrophage progenitor (GMPs); experiment: MLTA, GMPs: concentration-response and QSP model fit; type: cell-based, human; conditions: Homo sapiens, 144 h, 6 days, normalized to vehicle control, read-out: GMPs normalized cell count; for activity at 0.0002 µM: dose 0.2 nM; for activity at 0.001 µM: dose 1 nM; for activity at 0.005 µM: dose 5 nM; for activity at 0.025 µM: dose 25 nM; for activity at 0.1 µM: dose 100 nM; for activity at 0.5 µM: dose 500 nM; for activity at 2.5 µM: dose 2500 nM
How it was run: as §1

[4] = tested on: granulocyte progenitor (Gran-lin prog); experiment: MLTA, GranP: concentration-response and QSP model fit; type: cell-based, human; conditions: Homo sapiens, 144 h; for activity at 0.0002 µM: dose 0.2 nM; for activity at 0.0002 µM / activity at 0.001 µM / activity at 0.005 µM / activity at 0.025 µM / activity at 0.1 µM / activity at 0.5 µM / activity at 2.5 µM: 6 days, normalized to vehicle control, read-out: GranPs normalized cell count; for activity at 0.001 µM: dose 1 nM; for activity at 0.005 µM: dose 5 nM; for activity at 0.025 µM: dose 25 nM; for activity at 0.1 µM: dose 100 nM; for activity at 0.5 µM: dose 500 nM; for activity at 2.5 µM: dose 2500 nM; for Emax: parameter from QSP model fitting, read-out: Emax_drug_GranP
How it was run: as §1

granulocytes (Gran-lin) = experiment: MLTA, Gran: concentration-response and QSP model fit; type: cell-based, human; conditions: Homo sapiens, 144 h; for activity at 0.0002 µM: dose 0.2 nM; for activity at 0.0002 µM / activity at 0.001 µM / activity at 0.005 µM / activity at 0.025 µM / activity at 0.1 µM / activity at 0.5 µM / activity at 2.5 µM: 6 days, normalized to vehicle control, read-out: Gran normalized cell count; for activity at 0.001 µM: dose 1 nM; for activity at 0.005 µM: dose 5 nM; for activity at 0.025 µM: dose 25 nM; for activity at 0.1 µM: dose 100 nM; for activity at 0.5 µM: dose 500 nM; for activity at 2.5 µM: dose 2500 nM; for Emax: parameter from QSP model fitting, read-out: Emax_drug_Gran
How it was run: as §1

[5] = tested on: multi-potent progenitors (MPPs); experiment: MLTA, MPPs: concentration-response and QSP model fit; type: cell-based, human; conditions: Homo sapiens, 144 h; for activity at 0.0002 µM: dose 0.2 nM; for activity at 0.0002 µM / activity at 0.001 µM / activity at 0.005 µM / activity at 0.025 µM / activity at 0.1 µM / activity at 0.5 µM / activity at 2.5 µM: 6 days, normalized to vehicle control, read-out: MPPs normalized cell count; for activity at 0.001 µM: dose 1 nM; for activity at 0.005 µM: dose 5 nM; for activity at 0.025 µM: dose 25 nM; for activity at 0.1 µM: dose 100 nM; for activity at 0.5 µM: dose 500 nM; for activity at 2.5 µM: dose 2500 nM; for Emax: parameter from QSP model fitting, read-out: Emax_drug_MPP
How it was run: as §1

SMILES: O=C1CCC(N2C(=O)c3ccccc3C2=O)C(=O)N1 (stereo not shown) [thalidomide]
- activity at 0.0002 µM (B cells (B-lin)): 90.8%
- activity at 0.001 µM (B cells (B-lin)): 99.6%
- activity at 0.005 µM (B cells (B-lin)): 108%
- activity at 0.025 µM (B cells (B-lin)): 116%
- activity at 0.1 µM (B cells (B-lin)): 93%
- activity at 0.5 µM (B cells (B-lin)): 91.5%
- activity at 2.5 µM (B cells (B-lin)): 104%
- Emax (B cells (B-lin)): 0.24%
- viability at 0.0002 µM [1]: 90.8%
- viability at 0.001 µM [1]: 99.8%
- viability at 0.005 µM [1]: 108%
- viability at 0.025 µM [1]: 116%
- viability at 0.1 µM [1]: 93.1%
- viability at 0.5 µM [1]: 91.7%
- viability at 2.5 µM [1]: 104%
- activity at 0.0002 µM [2]: 109%
- activity at 0.001 µM [2]: 105%
- activity at 0.005 µM [2]: 123%
- activity at 0.025 µM [2]: 126%
- activity at 0.1 µM [2]: 94.6%
- activity at 0.5 µM [2]: 76.6%
- activity at 2.5 µM [2]: 139%
- Emax [2]: 0.0064%
- activity at 0.0002 µM (MK cells (MK-lin)): 97.8%
- activity at 0.001 µM (MK cells (MK-lin)): 103%
- activity at 0.005 µM (MK cells (MK-lin)): 118%
- activity at 0.025 µM (MK cells (MK-lin)): 114%
- activity at 0.1 µM (MK cells (MK-lin)): 101%
- activity at 0.5 µM (MK cells (MK-lin)): 88.1%
- activity at 2.5 µM (MK cells (MK-lin)): 105%
- Emax (MK cells (MK-lin)): 0.00388%
- activity at 0.0002 µM [3]: 92.4%
- activity at 0.001 µM [3]: 107%
- activity at 0.005 µM [3]: 100%
- activity at 0.025 µM [3]: 112%
- activity at 0.1 µM [3]: 97%
- activity at 0.5 µM [3]: 104%
- activity at 2.5 µM [3]: 99%
- activity at 0.0002 µM [4]: 80.9%
- activity at 0.001 µM [4]: 97.2%
- activity at 0.005 µM [4]: 114%
- activity at 0.025 µM [4]: 130%
- activity at 0.1 µM [4]: 99%
- activity at 0.5 µM [4]: 94.5%
- activity at 2.5 µM [4]: 109%
- Emax [4]: 0.0121%
- activity at 0.0002 µM (granulocytes (Gran-lin)): 85%
- activity at 0.001 µM (granulocytes (Gran-lin)): 100%
- activity at 0.005 µM (granulocytes (Gran-lin)): 110%
- activity at 0.025 µM (granulocytes (Gran-lin)): 126%
- activity at 0.1 µM (granulocytes (Gran-lin)): 94.9%
- activity at 0.5 µM (granulocytes (Gran-lin)): 92.7%
- activity at 2.5 µM (granulocytes (Gran-lin)): 102%
- Emax (granulocytes (Gran-lin)): 0.01%
- activity at 0.0002 µM [5]: 91.8%
- activity at 0.001 µM [5]: 75.9%
- activity at 0.005 µM [5]: 79%
- activity at 0.025 µM [5]: 87.5%
- activity at 0.1 µM [5]: 76.7%
- activity at 0.5 µM [5]: 78.1%
- activity at 2.5 µM [5]: 91.5%
- Emax [5]: 0.00111%

SMILES: CCc1cnn2c(NCc3ccc[n+]([O-])c3)cc(N3CCCC[C@H]3CCO)nc12 [dinaciclib]
- activity at 0.0002 µM (B cells (B-lin)): 81.8%
- activity at 0.001 µM (B cells (B-lin)): 90.4%
- activity at 0.005 µM (B cells (B-lin)): 90.4%
- activity at 0.025 µM (B cells (B-lin)): 11.7%
- activity at 0.1 µM (B cells (B-lin)): 0.127%
- activity at 0.5 µM (B cells (B-lin)): 0.514%
- activity at 2.5 µM (B cells (B-lin)): 0.106%
- Emax (B cells (B-lin)): 77.4%
- viability at 0.0002 µM [1]: 95.4%
- viability at 0.001 µM [1]: 107%
- viability at 0.005 µM [1]: 92.4%
- viability at 0.025 µM [1]: 26.1%
- viability at 0.1 µM [1]: 0.282%
- viability at 0.5 µM [1]: 0.4%
- viability at 2.5 µM [1]: 0.255%
- activity at 0.0002 µM [2]: 89.4%
- activity at 0.001 µM [2]: 105%
- activity at 0.005 µM [2]: 99.3%
- activity at 0.025 µM [2]: 38.3%
- activity at 0.1 µM [2]: 3.05%
- activity at 0.5 µM [2]: 7.81%
- activity at 2.5 µM [2]: 2.53%
- Emax [2]: 115%
- activity at 0.0002 µM (MK cells (MK-lin)): 90.3%
- activity at 0.001 µM (MK cells (MK-lin)): 111%
- activity at 0.005 µM (MK cells (MK-lin)): 71.8%
- activity at 0.025 µM (MK cells (MK-lin)): 11.8%
- activity at 0.1 µM (MK cells (MK-lin)): 0.294%
- activity at 0.5 µM (MK cells (MK-lin)): 0.526%
- activity at 2.5 µM (MK cells (MK-lin)): 0.425%
- Emax (MK cells (MK-lin)): 33.1%
- activity at 0.0002 µM [3]: 87%
- activity at 0.001 µM [3]: 111%
- activity at 0.005 µM [3]: 87.6%
- activity at 0.025 µM [3]: 40.3%
- activity at 0.1 µM [3]: 0.755%
- activity at 0.5 µM [3]: 1.71%
- activity at 2.5 µM [3]: 0.744%
- activity at 0.0002 µM [4]: 97.3%
- activity at 0.001 µM [4]: 99.7%
- activity at 0.005 µM [4]: 93.8%
- activity at 0.025 µM [4]: 31.7%
- activity at 0.1 µM [4]: 0.0459%
- activity at 0.5 µM [4]: 0.033%
- activity at 2.5 µM [4]: 0.0254%
- Emax [4]: 0.0135%
- activity at 0.0002 µM (granulocytes (Gran-lin)): 96.8%
- activity at 0.001 µM (granulocytes (Gran-lin)): 120%
- activity at 0.005 µM (granulocytes (Gran-lin)): 121%
- activity at 0.025 µM (granulocytes (Gran-lin)): 32.8%
- activity at 0.1 µM (granulocytes (Gran-lin)): 0.0467%
- activity at 0.5 µM (granulocytes (Gran-lin)): 0.0554%
- activity at 2.5 µM (granulocytes (Gran-lin)): 0.0385%
- Emax (granulocytes (Gran-lin)): 201%
- activity at 0.0002 µM [5]: 94.1%
- activity at 0.001 µM [5]: 104%
- activity at 0.005 µM [5]: 96.7%
- activity at 0.025 µM [5]: 53.4%
- activity at 0.1 µM [5]: 2.71%
- activity at 0.5 µM [5]: 2.67%
- activity at 2.5 µM [5]: 0.896%
- Emax [5]: 69.4%
